Measurements: article PMC10778198, “First-in-Human Dose-Escalation Study of the Novel Oral Depsipeptide Class I-Targeting HDAC Inhibitor Bocodepsin (OKI-179) in Patients with Advanced Solid Tumors” (Cancers, 2023)

Tested on: patients with advanced solid tumors
Test: phase I dose escalation: safety, DLT, MTD, RP2D (CTCAE v. 5)
Type: in vivo
Source text: Subsequent dosing cohorts were enrolled using a standard 3 + 3 design.
If any patient in any cohort of three patients developed a DLT during cycle 1, an additional three patients were recruited to expand the cohort to up to six evaluable patients. If two or more patients in any expanded cohort developed a DLT, this dose was considered non-tolerated, and dose escalation was discontinued. The MTD was defined as the highest dose level for which no more than one of six patients experienced a DLT.
Patients were continuously evaluated for adverse events throughout the study using the Common Terminology Criteria of Adverse Events (CTCAE v. 5). The patients underwent a clinical history and physical examination, an ECOG PS, a complete blood count (CBCs), chemistry, coagulation studies, urinalysis, a serum pregnancy test (as applicable), a triplicate ECG, an ophthalmology examination, and baseline tumor assessment at screening. During cycle 1, weekly history and physical examination, CBC, chemistry, coagulation parameters, urinalysis, and triplicate ECGs were performed; in subsequent cycles, weekly labs were limited to a CBC. Repeat ophthalmology examinations were performed at cycle 3, day 1, and at the end of treatment. Repeat tumor assessment was performed every 2 cycles (6 weeks) in accordance with RECIST 1.1.

[1] = All Continuous Patients (N=8), All grades
[2] = All Continuous Patients (N=8), G1
[3] = All Continuous Patients (N=8), G2
[4] = All Continuous Patients (N=8), G3

CC(C)[C@H](N)C(=O)SCC/C=C/[C@@H]1CC(=O)NCc2nc(cs2)C(=O)NC(C)(C)C(=O)N[C@@H](C(C)C)C(=O)O1 [OKI-179, Bocodepsin]
4 (50) N (%): TEAE: Fatigue [1] | TEAE: Platelet count decreased [1] | TEAE: Nausea [2]
3 (15) n (%): TEAE: Proteinuria (All 4:3 Patients (n = 20), G2) | TEAE: ECG QT prolonged (All 4:3 Patients (n = 20), G3) | TEAE: Fatigue (All 4:3 Patients (n = 20), G3)
5 (25) n (%): TEAE: Anemia (All 4:3 Patients (n = 20), G3)
3 (38) N (%): TEAE: Diarrhea [1] | TEAE: Headache [1] | TEAE: Constipation [2] | TEAE: Diarrhea [2] | TEAE: Headache [2] | TEAE: Constipation [3]
2 (10) n (%): TEAE: Fatigue (All 4:3 Patients (n = 20), G2) | TEAE: Hypokalaemia (All 4:3 Patients (n = 20), G2) | TEAE: Muscular weakness (All 4:3 Patients (n = 20), G2) | TEAE: Platelet count decreased (All 4:3 Patients (n = 20), G2)
0 N (%): TEAE: Anemia [2] | TEAE: Decreased appetite [3] | TEAE: Diarrhea [3] | TEAE: Headache [3] | TEAE: Abdominal pain [4] | TEAE: Anemia [4] | TEAE: Constipation [4] | TEAE: Diarrhea [4] | TEAE: Dyspepsia [4] | TEAE: ECG QT prolonged [4]
1 (13) N (%): TEAE: Abdominal pain [2] | TEAE: Decreased appetite [2] | TEAE: Dyspepsia [2] | TEAE: ECG QT prolonged [2] | TEAE: Fatigue [2] | TEAE: Pain [2] | TEAE: Platelet count decreased [2] | TEAE: Abdominal pain [3] | TEAE: Dyspepsia [3] | TEAE: ECG QT prolonged [3] | TEAE: Pain [3] | TEAE: Platelet count decreased [3] | TEAE: Decreased appetite [4] | TEAE: Fatigue [4]
6 (75) N (%): TEAE: Constipation [1] | TEAE: Nausea [1]
1 (5) n (%): TEAE: Vomiting (All 4:3 Patients (n = 20), G2) | TEAE: Weight decreased (All 4:3 Patients (n = 20), G2) | TEAE: Back pain (All 4:3 Patients (n = 20), G3) | TEAE: Muscular weakness (All 4:3 Patients (n = 20), G3) | TEAE: Pyrexia (All 4:3 Patients (n = 20), G3)
0 n (%): TEAE: Dyspnea (All 4:3 Patients (n = 20), G2) | TEAE: ECG QT prolonged (All 4:3 Patients (n = 20), G2) | TEAE: Headache (All 4:3 Patients (n = 20), G2) | TEAE: Nasal congestion (All 4:3 Patients (n = 20), G2) | TEAE: Pyrexia (All 4:3 Patients (n = 20), G2) | TEAE: Cough (All 4:3 Patients (n = 20), G3) | TEAE: Decreased appetite (All 4:3 Patients (n = 20), G3) | TEAE: Diarrhea (All 4:3 Patients (n = 20), G3) | TEAE: Dyspnea (All 4:3 Patients (n = 20), G3) | TEAE: Headache (All 4:3 Patients (n = 20), G3) | TEAE: Hypokalaemia (All 4:3 Patients (n = 20), G3) | TEAE: Nasal congestion (All 4:3 Patients (n = 20), G3) | TEAE: Nausea (All 4:3 Patients (n = 20), G3) | TEAE: Platelet count decreased (All 4:3 Patients (n = 20), G3) | TEAE: Proteinuria (All 4:3 Patients (n = 20), G3) | TEAE: Vomiting (All 4:3 Patients (n = 20), G3) | TEAE: Weight decreased (All 4:3 Patients (n = 20), G3)
2 (25) N (%): TEAE: Abdominal pain [1] | TEAE: Anemia [1] | TEAE: Decreased appetite [1] | TEAE: Dyspepsia [1] | TEAE: ECG QT prolonged [1] | TEAE: Pain [1] | TEAE: Anemia [3] | TEAE: Fatigue [3] | TEAE: Nausea [3]
4 (20) n (%): TEAE: Nausea (All 4:3 Patients (n = 20), G2)
